Molecular target: T1, Kinesin-like protein KIF18A (Homo sapiens, UniProt Q8NI77)
T1 sequence (Q8NI77 whole entry): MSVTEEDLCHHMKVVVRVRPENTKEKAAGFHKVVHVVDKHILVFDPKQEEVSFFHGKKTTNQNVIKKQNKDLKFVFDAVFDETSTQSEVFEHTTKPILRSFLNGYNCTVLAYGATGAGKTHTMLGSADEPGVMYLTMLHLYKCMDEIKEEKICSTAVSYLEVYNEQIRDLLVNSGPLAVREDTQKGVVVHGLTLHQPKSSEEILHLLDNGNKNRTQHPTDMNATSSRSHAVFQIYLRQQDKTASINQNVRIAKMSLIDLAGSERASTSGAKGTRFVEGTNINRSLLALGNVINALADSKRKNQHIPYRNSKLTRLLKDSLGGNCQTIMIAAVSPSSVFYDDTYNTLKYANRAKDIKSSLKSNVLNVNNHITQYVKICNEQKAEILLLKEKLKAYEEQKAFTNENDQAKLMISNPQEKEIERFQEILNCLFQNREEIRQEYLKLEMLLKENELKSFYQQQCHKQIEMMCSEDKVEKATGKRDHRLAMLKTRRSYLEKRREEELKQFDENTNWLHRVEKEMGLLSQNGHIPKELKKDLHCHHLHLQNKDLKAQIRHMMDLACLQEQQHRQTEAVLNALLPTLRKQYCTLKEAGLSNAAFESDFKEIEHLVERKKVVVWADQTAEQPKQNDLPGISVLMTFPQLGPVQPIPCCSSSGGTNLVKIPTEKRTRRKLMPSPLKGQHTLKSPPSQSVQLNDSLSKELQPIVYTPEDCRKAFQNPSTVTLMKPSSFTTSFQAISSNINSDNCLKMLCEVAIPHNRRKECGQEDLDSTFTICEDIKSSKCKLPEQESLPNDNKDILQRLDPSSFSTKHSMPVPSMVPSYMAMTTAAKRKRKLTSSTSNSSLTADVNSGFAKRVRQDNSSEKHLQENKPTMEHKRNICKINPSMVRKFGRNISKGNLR
Test: Inhibition of recombinant His-tagged human KIF18A (1 to 467 residues) expressed in baculovirus expression system assessed as inhibition of microtubule-stimulated ATPase activity preincubated for 15 mins followed by ATP addition and further incubated for 15 mins and measured after 40 mins by ADP-Glo reagent based assay

| IC50 [nM] | SMILES |
| --- | --- |
| 151 | Cc1cc(NC(=O)c2ccc(NS(=O)(=O)C[C@H](C)O)cc2N2CCC3(CC2)CC3)nc(N2CCO[C@H](C)C2)n1 |
| 57 | Cc1cc(NC(=O)c2ccc(S(=O)(=O)[C@@H](C)CO)cc2N2CCC3(CC2)CC3)nc(N2CCC(F)(F)CC2)n1 |
| 186 | Cc1cc(NC(=O)c2ccc(S(C)(=O)=O)cc2N2CCC3(CC2)CC3)nc(NC(C)(C)CO)n1 |
| 64 | Cc1cc(NC(=O)c2ccc(S(=O)(=O)[C@H](C)CO)cc2N2CCC3(CC2)CC3)nc(N2CCC(F)(F)CC2)n1 |
